# Source: patent publication US7737253B2, “Human cancer stem cell culture compositions comprising Erbb2 variants and methods of use thereof” (BresaGen, Inc., priority 2006, dated 2010)
# “Also recorded” adds a separate entry of the source.
# Tests used:
# [1] = tested on: Erbb2Δ16-expressing cells; settings: unlike wild type Erbb2-transfectants; cited from earlier work
# Erbb2/4 heterodimers = Erbb2/4 heterodimers (Homo sapiens, UniProt Q15303); settings: read-out: binding affinity; cited from earlier work
# Erbb2/3 heterodimers = Erbb2/3 heterodimers (Homo sapiens, UniProt P21860); settings: read-out: binding affinity; cited from earlier work
# Erbb3 = biological target: T1, Erbb3 (Homo sapiens, UniProt P21860); test: Phospho-RTK antibody array, Erbb3 phosphorylation in BG01 and BG01v cells; type: cell-based; settings: BG01 and BG01v cells starved overnight, then pulsed about 15 minutes with 10 ng/ml heregulin
# T1 construct: endogenous in cells; host or cells: BG01 and BG01v human embryonic stem cells
# Description: (§1) (A) BG01 and BG01v cells were grown in defined condition-heregulin/Activin A/IGF-1/FGF (DC-HAIF) media. The hESCs were starved of growth factors overnight (“Starved”), or starved then pulsed with 10 ng/ml Heregulin (“HRG pulse”). Cell lysates were prepared and examined for phosphorylation of Erbb2 and Erbb3 by RTK blotting. (B) The spots were quantified, normalized against controls, and charted as normalized relative intensity. […] While at a lower overall intensity, a similar pattern was also observed in the starved conditions.
# (§2) Cells were maintained in steady state conditions in defined conditioned-heregulin/Activin A/IGF1/FGF (DC-HAIF), were incubated in media minus or starved of growth factors (e.g., no heregulin/Activin A/IGF1/FGF) overnight, or starved and then pulsed about 15 minutes with 10 ng/ml heregulin. Proteome Profiler™ human phospho-RTK antibody arrays (R&D Systems, Cat#ARY001) were used according to the manufacturer's instructions. […] The arrayed antibodies capture the extracellular domains of both phosphorylated and unphosphorylated RTKs, and bound phospho-RTKs were detected with a pan anti-phospho-tyrosine antibody conjugated to horseradish peroxidase (HRP) using chemiluminescence. X-ray film was scanned and spots were quantified using NTH-image (world wide web at rsb.info.nih.gov/nih-image/). […]
# ERBB2 (phospho-Y1248) = test: Western blot of ERBB2 phospho-Y1248 in BG01 hESCs; type: cell-based, human; settings: BG01 hESCs starved overnight
# Description: BG01 hESCs were grown in DC-HAIF and then in media minus or starved of growth factors overnight, washed and then pulsed with either with heregulin (HRG) or not, or incubated with AG825 or not.
# All BG01 HESC cultures were first grown in defined conditioned-heregulin/Activin A/IGF1/FGF (DC-HAIF) and then in media starved of growth factors overnight e.g., no heregulin, Activin A, IGF1 and/or FGF. […]
# Cell lysates were prepared as per RTK blotting, separated by 4-20% gradient SDS-PAGE, blotted and detected with an immunoaffinity purified anti-ERBB2 (phospho-Y1248) antibody (Upstate/Millipore Cat#06229). The Erbb2 phospho-Y1248 antibody was used to quantify tyrosine phosphorylation of Erbb2 resulting from the interaction of heregulin with Erbb3 and/or ErbB4. […]
# Erbb2 = test: Phospho-RTK antibody array, Erbb2 phosphorylation in BG01 and BG01v cells; type: cell-based, human; settings: BG01 and BG01v cells starved overnight, then pulsed about 15 minutes with 10 ng/ml heregulin
# Description: as §1, §2
# Erbb2Δ16 = biological target: T2, Erbb2Δ16 (Homo sapiens, UniProt P04626, DEL634-649); settings: cited from earlier work
# T2 construct: host or cells: transfected human cells / Erbb2Δ16 transgene over-expression (Castiglioni et al., 2006)
# BG01v cells = test: Growth of BG01v cells in defined media with Erbb2 TK inhibitors; type: cell-based, human; settings: absence of an exogenous Erbb2 activating growth factor
# Text: This confirms that endogenous Erbb2 signaling is critical for the self-renewal of BG01v cells and represents a major difference between variant and normal hESCs.
# wild type Erbb2 = biological target: T3, wild type Erbb2 (Homo sapiens, UniProt P04626); settings: cited from earlier work
# T3 construct: host or cells: transfected human cells (Castiglioni et al., 2006)
# hESCs = test: hESC proliferation and cell count after treatment with AG825; type: cell-based, human; settings: for cell count: average of triplicate counts
# Description: Based on the above studies described in Examples 13 and 14, further experiments were performed to quantify the number of hESCs and determine the level of inhibition of Erbb2 using AG825. […] Values reported were taken from an average of the triplicate (3) cell counts. The initial cell count was performed similarly. AG825 inhibited Erbb2 tyrosine kinase activity, thereby inhibiting cell signaling, and effectively reducing and inhibiting HESC proliferation and growth by about at least 1, 2 or 3 orders of magnitude.
# Erbb2 tyrosine kinase = Erbb2 tyrosine kinase (Homo sapiens, UniProt P04626); settings: cited from earlier work
compound,measurement,setting,value
COc1cc2ncnc(Nc3ccc(F)c(Cl)c3)c2cc1OCCCN1CCOCC1 [ZD1839],sensitivity of Erbb2Δ16-expressing cells to the drug,[1],low sensitivity
"HRG-β: neuregulin-β, EGF growth factor family member; cleaved ectodomain of neuregulin",Kd,Erbb2/4 heterodimers,< 1 nM
same,Kd,Erbb2/3 heterodimers,< 1 nM
"HRG: Heregulin-β EGF domain (HRGβ, Peprotech), recombinant growth factor",phosphorylation of ERBB3,Erbb3,strong phosphorylation
same,Erbb2 phosphorylation detected by phospho-Y1248 antibody,ERBB2 (phospho-Y1248); 15 minute pulse with 10 ng/ml HRG1β (lane 3) or DC-HAIF media (lane 5),increased Erbb2 phosphorylation
same,phosphorylation of ERBB2,Erbb2,strong phosphorylation
Cc1cc(O)c2c(c1)C(=O)c1cc(O)cc(O)c1C2=O [emodin],activation of Erbb2Δ16 transfectants,Erbb2Δ16,blocked activation
same,growth of BG01v cells,BG01v cells,inhibit the growth
same,activation of wild type Erbb2 transfectants,wild type Erbb2,blocked activation
"COc1cc(/C=C(\C#N)C(N)=O)cc(CSc2nc3ccccc3s2)c1O [AG825, Tyrphostin AG825]",number of hESCs after treatment compared to DMSO and conditioned media (CM) control,hESCs,statistically significant decrease
same,cell count,"hESCs; Experiment 1, initial cell count 560 × 10^3, CM 1.99 × 10^6, DMSO 2.13 × 10^6, P = 0.005",406.6 × 10^3
same,cell count,"hESCs; Experiment 2, initial cell count 853.3 × 10^3, CM 2.77 × 10^6, DMSO 2.54 × 10^6, P = 0.007",433.3 × 10^3
same,proliferation of hESCs,hESCs; hESCs growing in CM,significantly inhibited proliferation
same,autophosphorylation of ERBB2 at Tyrosine-1248,"ERBB2 (phospho-Y1248); 15 minute pulse, 50 μM AG825 without or with 10 ng/ml HRG1β (lanes 2 and 4)",inhibited autophosphorylation; also recorded: inhibition of ERBB2 Y1248 phosphorylation
same,selectivity as inhibitor of the Erbb2 tyrosine kinase,Erbb2 tyrosine kinase,highly selective inhibitor
same,growth of BG01v cells,BG01v cells,inhibit the growth
CC(C)(C)c1cc(/C=C(\C#N)C(N)=S)cc(C(C)(C)C)c1O [AG879],growth of BG01v cells,BG01v cells,inhibit the growth
